ChEMBL document CHEMBL1156442 (J Biol Chem, 2007)
pEC50, pKd: −log10 of the molar value.

Assays:
[1] = Octanol-water partition coefficient, log KOW of the compound; assay type: physicochemical; conditions: read-out: log K
[2] = Binding affinity to human serum albumin
[3] = Chemical stability in aqueous solution assessed as hydrolysis after 4 hrs; assay type: physicochemical; conditions: read-out: Activity
[4] = test system: Rana temporaria; assay: Anesthetic potency in Rana temporaria tadpoles assessed as loss of righting reflex for 60 mins; conditions: 1 h
[5] = biological target: T1, Gamma-aminobutyric acid receptor subunit alpha-1 (Homo sapiens, UniProt P14867+P18507+P47870); assay: Activity at human GABAA alpha-1-beta-2-gamma-2s receptor expressed in HEK293 cells assessed as effect on GABA-induced current at 3 uM by whole cell patch-clamp technique; assay type: cell-based
T1 sequence (P14867 whole entry): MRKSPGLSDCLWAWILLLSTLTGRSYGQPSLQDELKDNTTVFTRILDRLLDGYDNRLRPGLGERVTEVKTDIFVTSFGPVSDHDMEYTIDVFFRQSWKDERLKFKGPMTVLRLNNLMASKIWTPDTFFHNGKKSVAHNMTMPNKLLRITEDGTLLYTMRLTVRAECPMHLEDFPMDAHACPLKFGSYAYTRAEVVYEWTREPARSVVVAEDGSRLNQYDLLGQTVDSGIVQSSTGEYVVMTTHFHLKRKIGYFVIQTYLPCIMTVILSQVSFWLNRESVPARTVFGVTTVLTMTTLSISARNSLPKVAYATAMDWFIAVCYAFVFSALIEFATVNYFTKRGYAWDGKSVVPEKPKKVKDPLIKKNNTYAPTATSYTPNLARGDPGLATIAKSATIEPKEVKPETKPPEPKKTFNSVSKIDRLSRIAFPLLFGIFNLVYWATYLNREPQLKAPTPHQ

[6] = test system: Rattus norvegicus; assay: Anesthetic potency in Sprague-Dawley rat assessed as loss of righting reflex; assay type: functional

## CC(c1ccccc1)n1cncc1C=O (stereo unspecified)
[1]
  logP: 1.77

## CCOC(=O)c1cncn1[C@H](C)c1ccccc1 [ETOMIDATE]
[1]
  logP: 2.89
[2]
  pKd: 3.75

## CC(c1ccccc1)n1cncc1CO (stereo unspecified)
[1]
  logP: 1.28

## CC(c1ccccc1)n1cncc1C(=O)N=[N+]=[N-] (stereo unspecified)
[1]
  logP: 2.71
[3]
  degraded at 4 h: 10%

## COC(=O)c1cncn1C(C)c1ccccc1 (stereo unspecified) [METOMIDATE]
[1]
  logP: 2.28

## CCOC(=O)c1cncn1[C@@H](C)c1ccccc1 [S-ETOMIDATE]
[4]
  pEC50: 4.44

## C[C@H](c1ccccc1)n1cncc1C(=O)N=[N+]=[N-]
[5]
  pEC50: 4.96
[2]
  pKd: 3.92
[6]
  ED50: 1.7 mg/kg
